Test results: ChEMBL document CHEMBL1201862, “PubChem BioAssay data set” (2004)
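Where inhibition never reached the appropriate level, the endpoint shown equals the highest concentration tested. Otherwise, values were interpolated linearly from a five-concentration, 48-hour dose response in 96-well plates. GI50 is the concentration that inhibits growth by half.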 Active and inactive are the calls of the source. No stated cut-off is given here; in the data, active = GI50 up to about 1.1 µM and inactive = higher.

Tests used:
Assay in all cases: growth of human tumour cells (NCI), 48 h
MOLT-4 = system: MOLT-4
NCI/ADR-RES = system: NCI/ADR-RES
Malme-3M = system: Malme-3M
MCF7 = system: MCF7
EKVX = system: EKVX
SK-MEL-5 = system: SK-MEL-5
RXF 393 = system: RXF 393
HOP-62 = system: HOP-62
M14 = system: M14
A549 = system: A549
KM12 = system: KM12
MDA-MB-231 = system: MDA-MB-231
SR = system: SR
SF-295 = system: SF-295
SF-268 = system: SF-268
OVCAR-3 = system: OVCAR-3
SN12C = system: SN12C
T47D = system: T47D
DU-145 = system: DU-145
OVCAR-4 = system: OVCAR-4
Hs-578T = system: Hs-578T
COLO 205 = system: COLO 205
A498 = system: A498
SK-OV-3 = system: SK-OV-3
LOX IMVI = system: LOX IMVI
TK-10 = system: TK-10
BT-549 = system: BT-549
NCI-H522 = system: NCI-H522
CCRF-CEM = system: CCRF-CEM
NCI-H226 = system: NCI-H226
OVCAR-8 = system: OVCAR-8
SK-MEL-28 = system: SK-MEL-28
SF-539 = system: SF-539
U-251 = system: U-251
HL-60 = system: HL-60
K562 = system: K562
PC-3 = system: PC-3
NCI-H23 = system: NCI-H23
HCT-15 = system: HCT-15
NCI-H460 = system: NCI-H460
RPMI-8226 = system: RPMI-8226
ACHN = system: ACHN
IGROV-1 = system: IGROV-1
SW-620 = system: SW-620
OVCAR-5 = system: OVCAR-5
MDA-MB-435 = system: MDA-MB-435
HCC 2998 = system: HCC 2998
HCT-116 = system: HCT-116
SNB-19 = system: SNB-19
CAKI-1 = system: CAKI-1
786-0 = system: 786-0
SNB-75 = system: SNB-75
HOP-92 = system: HOP-92
UO-31 = system: UO-31
UACC-62 = system: UACC-62
UACC-257 = system: UACC-257
HT-29 = system: HT-29

SMILES: CCOc1ccc(NCC2CC/C(=C\c3ccc(O)cc3)C2=O)cc1 (stereo not drawn)
- GI50 (MOLT-4): 4.17 µM (inactive)
- GI50 (NCI/ADR-RES): 18 µM (inactive)
- GI50 (Malme-3M): 14.9 µM (inactive)
- GI50 (MCF7): 3.61 µM (inactive)
- GI50 (EKVX): 20.5 µM (inactive)
- GI50 (SK-MEL-5): 19.1 µM (inactive)
- GI50 (RXF 393): 18.7 µM (inactive)
- GI50 (HOP-62): 37.8 µM (inactive)
- GI50 (M14): 18.1 µM (inactive)
- GI50 (A549): 21.2 µM (inactive)
- GI50 (KM12): 12.2 µM (inactive)
- GI50 (MDA-MB-231): 19.2 µM (inactive)
- GI50 (SR): 2.19 µM (inactive)
- GI50 (SF-295): 24.5 µM (inactive)
- GI50 (SF-268): 15.8 µM (inactive)
- GI50 (OVCAR-3): 12.2 µM (inactive)
- GI50 (SN12C): 18.5 µM (inactive)
- GI50 (T47D): 19 µM (inactive)
- GI50 (DU-145): 25.7 µM (inactive)
- GI50 (OVCAR-4): 17.2 µM (inactive)
- GI50 (Hs-578T): 28.8 µM (inactive)
- GI50 (COLO 205): 13.6 µM (inactive)
- GI50 (A498): 18.2 µM (inactive)
- GI50 (SK-OV-3): > 44.7 µM (inactive)
- GI50 (LOX IMVI): 12.2 µM (inactive)
- GI50 (TK-10): 12.7 µM (inactive)
- GI50 (BT-549): 12.9 µM (inactive)
- GI50 (NCI-H522): 6.14 µM (inactive)
- GI50 (CCRF-CEM): 5.87 µM (inactive)
- GI50 (NCI-H226): 38.2 µM (inactive)
- GI50 (OVCAR-8): 17.9 µM (inactive)
- GI50 (SK-MEL-28): 15.5 µM (inactive)
- GI50 (SF-539): 19.1 µM (inactive)
- GI50 (U-251): 16.7 µM (inactive)
- GI50 (HL-60): 2.22 µM (inactive)
- GI50 (K562): 3.89 µM (inactive)
- GI50 (PC-3): 16.9 µM (inactive)
- GI50 (NCI-H23): 23.3 µM (inactive)
- GI50 (HCT-15): 6.9 µM
- GI50 (NCI-H460): 23.2 µM (inactive)
- GI50 (RPMI-8226): 4.02 µM (inactive)
- GI50 (ACHN): 17 µM (inactive)
- GI50 (IGROV-1): 18.9 µM (inactive)
- GI50 (SW-620): 3.03 µM (inactive)
- GI50 (OVCAR-5): 15.6 µM (inactive)
- GI50 (MDA-MB-435): 18.4 µM (inactive)
- GI50 (HCC 2998): 18.1 µM (inactive)
- GI50 (HCT-116): 9.64 µM (inactive)
- GI50 (SNB-19): 25.5 µM (inactive)
- GI50 (CAKI-1): 17.1 µM (inactive)
- GI50 (786-0): 6.65 µM (inactive)
- GI50 (SNB-75): 14.5 µM (inactive)
- GI50 (HOP-92): 15.2 µM (inactive)
- GI50 (UO-31): 19.4 µM (inactive)
- GI50 (UACC-62): 19.7 µM (inactive)
- GI50 (UACC-257): 16.9 µM (inactive)
- GI50 (HT-29): 15.6 µM (inactive)

SMILES: CC1=C(N2CC2)C(=O)C(CO)=C(N2CC2)C1=O
- GI50 (MOLT-4): 0.0129 µM (active)
- GI50 (NCI/ADR-RES): 0.0106 µM (active)
- GI50 (Malme-3M): 0.0357 µM (active)
- GI50 (MCF7): 0.0106 µM (active)
- GI50 (EKVX): 0.254 µM (active)
- GI50 (SK-MEL-5): 0.0279 µM (active)
- GI50 (RXF 393): 0.0231 µM (active)
- GI50 (HOP-62): 0.0144 µM (active)
- GI50 (M14): 0.0111 µM (active)
- GI50 (KM12): 0.0227 µM (active)
- GI50 (MDA-MB-231): 0.173 µM (active)
- GI50 (SR): < 0.01 µM (active)
- GI50 (SF-295): 0.013 µM (active)
- GI50 (SF-268): 0.0129 µM (active)
- GI50 (OVCAR-3): 0.0203 µM (active)
- GI50 (SN12C): < 0.0102 µM (active)
- GI50 (T47D): 0.0114 µM (active)
- GI50 (DU-145): < 0.01 µM (active)
- GI50 (OVCAR-4): 0.103 µM (active)
- GI50 (Hs-578T): 0.234 µM (active)
- GI50 (A498): 0.0575 µM (active)
- GI50 (SK-OV-3): 0.0516 µM (active)
- GI50 (LOX IMVI): < 0.01 µM (active)
- GI50 (TK-10): 0.0258 µM (active)
- GI50 (BT-549): 0.13 µM (active)
- GI50 (NCI-H522): 0.013 µM (active)
- GI50 (CCRF-CEM): < 0.01 µM (active)
- GI50 (NCI-H226): 0.0506 µM (active)
- GI50 (SK-MEL-28): 0.0711 µM (active)
- GI50 (SF-539): < 0.0123 µM (active)
- GI50 (U-251): 0.0141 µM (active)
- GI50 (HL-60): < 0.01 µM (active)
- GI50 (K562): 0.0186 µM (active)
- GI50 (NCI-H23): 0.0169 µM (active)
- GI50 (HCT-15): 0.0151 µM
- GI50 (NCI-H460): < 0.01 µM (active)
- GI50 (RPMI-8226): < 0.0142 µM (active)
- GI50 (ACHN): < 0.01 µM (active)
- GI50 (IGROV-1): 0.0112 µM (active)
- GI50 (SW-620): 0.0123 µM (active)
- GI50 (OVCAR-5): 0.067 µM (active)
- GI50 (HCC 2998): 0.0378 µM (active)
- GI50 (HCT-116): < 0.0291 µM (active)
- GI50 (SNB-19): 0.0927 µM (active)
- GI50 (CAKI-1): < 0.01 µM (active)
- GI50 (786-0): < 0.0321 µM (active)
- GI50 (SNB-75): 0.031 µM (active)
- GI50 (UO-31): 0.0101 µM (active)
- GI50 (UACC-62): 0.022 µM (active)
- GI50 (UACC-257): 0.0923 µM (active)
- GI50 (HT-29): 0.0132 µM (active)
